Laboratory results taken from patent US20220281831A1, “FUSED-GLUTARIMIDE CRBN LIGANDS AND USES THEREOF” (Kymera Therapeutics, Inc., priority 2019, published 2022).

How the values were obtained:
CRBN-DDB1 = CRBN-DDB1 (Homo sapiens, UniProt Q96SW2); experiment: Fluorescence Polarization (FP) CRBN binding assay, probe TM-493 (FAM-BB-100); details: CRBN-DDB1, TM-493 probe, 60 min room temperature
Experimental: Fluorescence Polarization (FP) Assay
Materials: PerkinElmer EnVision 2104 Multilabel Reader, PerkinElmer FITC FP dual emission Label 2100-8060, Corning 384-well microplate #4514, V-CMR-TM-493 (FAM-BB-100), and CRBN-DDB1-180605.
Methods: Dilution buffer (50 mM HEPES-Na pH 7.5, 100 mM NaCl, 2 mM DTT, and 0.005% Tween-20) and compound DMSO dilutions were prepared. 4× compound working solutions were made with 8% DMSO (4×) and 13.8 μL/well of dilution buffer was placed in a new 96-well plate and 1.2 μL/well of above compound DMSO dilutions were added to the wells. 40 nM (4×) TM-493 in dilution buffer was prepared from a 10 μM DMSO stock and 15 μL per well of the TM-493 working solution was transferred into the compound working solution. 160 nM (2×) CRBN-DDB1 working solution was prepared with Dilution Buffer and 10 μL/well were added into a 384-well plate. 10 μL per well of the TM-493/compound mixture were transferred into the 384-well plate. The “positive control” was sample without protein and compound in 2% DMSO. After incubation at room temperature for 60 min, data was collected and read on data on an EnVision with the following setting: Excitation Light (%): 100; Measurement Height: 9.4; G-Factor: 1; Detector Gain 1: 200; Detector Gain 2: 200; Flash Number: 100. Data was processed using GraphPad Prism 7.0
The compound numbers correspond to the compound numbers in Table 1.

[1] = target: His-tagged CRBN-DDB1 complex (Homo sapiens, UniProt Q96SW2); experiment: Time-Resolved Fluorescence Resonance Energy Transfer (TR-FRET / HTRF) CRBN binding assay, displacement of Cy5-labeled thalidomide; details: His-CRBN-DDB1, Cy5-thalidomide 8 nM, 1 hour room temperature
His-tagged CRBN-DDB1 complex, sequence (Q96SW2 whole entry): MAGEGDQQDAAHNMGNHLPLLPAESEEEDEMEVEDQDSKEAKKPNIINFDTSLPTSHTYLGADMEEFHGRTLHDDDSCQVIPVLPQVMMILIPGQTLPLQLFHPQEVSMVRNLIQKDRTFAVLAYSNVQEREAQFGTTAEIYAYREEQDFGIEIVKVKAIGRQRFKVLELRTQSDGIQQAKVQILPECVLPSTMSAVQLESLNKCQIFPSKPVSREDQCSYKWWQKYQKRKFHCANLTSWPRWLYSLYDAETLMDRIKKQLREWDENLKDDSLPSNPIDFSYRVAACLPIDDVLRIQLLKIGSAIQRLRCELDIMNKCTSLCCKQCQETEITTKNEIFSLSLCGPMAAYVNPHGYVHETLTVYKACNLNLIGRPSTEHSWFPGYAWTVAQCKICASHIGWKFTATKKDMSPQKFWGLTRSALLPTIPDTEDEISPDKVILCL
His-tagged CRBN-DDB1 complex, sequence (Q16531 whole entry partner): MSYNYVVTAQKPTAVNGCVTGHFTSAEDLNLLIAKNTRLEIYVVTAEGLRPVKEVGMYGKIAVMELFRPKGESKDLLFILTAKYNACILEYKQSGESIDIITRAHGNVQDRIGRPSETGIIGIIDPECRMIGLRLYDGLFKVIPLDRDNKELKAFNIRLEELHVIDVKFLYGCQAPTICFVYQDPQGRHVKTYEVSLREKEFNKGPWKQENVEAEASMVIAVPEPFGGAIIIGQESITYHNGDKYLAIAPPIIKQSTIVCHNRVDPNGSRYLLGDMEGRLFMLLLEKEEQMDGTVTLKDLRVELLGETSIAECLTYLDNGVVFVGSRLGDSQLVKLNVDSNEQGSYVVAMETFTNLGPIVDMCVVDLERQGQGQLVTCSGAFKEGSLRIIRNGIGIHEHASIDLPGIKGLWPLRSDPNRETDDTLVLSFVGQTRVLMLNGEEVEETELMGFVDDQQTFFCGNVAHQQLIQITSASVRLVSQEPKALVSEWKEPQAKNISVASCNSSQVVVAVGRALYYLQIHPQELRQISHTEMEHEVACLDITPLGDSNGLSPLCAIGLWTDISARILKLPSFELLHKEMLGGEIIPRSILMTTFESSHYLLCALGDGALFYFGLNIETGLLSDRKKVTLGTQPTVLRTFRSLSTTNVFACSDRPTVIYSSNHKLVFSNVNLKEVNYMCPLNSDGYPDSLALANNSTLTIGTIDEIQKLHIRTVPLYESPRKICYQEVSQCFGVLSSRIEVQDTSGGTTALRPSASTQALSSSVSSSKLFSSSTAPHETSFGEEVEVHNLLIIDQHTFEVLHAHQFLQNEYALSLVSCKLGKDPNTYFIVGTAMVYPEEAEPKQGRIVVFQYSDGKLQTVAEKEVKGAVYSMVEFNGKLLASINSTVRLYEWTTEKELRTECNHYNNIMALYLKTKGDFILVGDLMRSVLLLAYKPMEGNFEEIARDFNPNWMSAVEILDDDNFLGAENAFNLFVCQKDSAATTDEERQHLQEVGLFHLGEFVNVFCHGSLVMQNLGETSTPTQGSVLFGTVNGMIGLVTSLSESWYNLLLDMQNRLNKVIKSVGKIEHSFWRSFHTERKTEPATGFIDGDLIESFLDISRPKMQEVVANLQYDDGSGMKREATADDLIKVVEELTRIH

CRBN-DDB1, sequence (Q96SW2 whole entry): as the sequence (Q96SW2 whole entry) above
CRBN-DDB1, sequence (Q16531 whole entry partner): as the sequence (Q16531 whole entry partner) above

Compound	IC50 (CRBN-DDB1) [µM]	IC50 [1] [µM]
O=C1Cc2cccc(C(=O)N3CCc4ccccc43)c2C(=O)N1 [Compound I-1, 8-(2,3-Dihydroindole-1-carbonyl)-2,4-dihydroisoquinoline-1,3-dione]	10 to 30	> 100
NC(=O)c1ccccc1-c1cccc2c1C(=O)NC(=O)C2 [Compound I-2, 2-(1,3-Dioxo-2,4-dihydroisoquinolin-8-yl)benzamide]	30 to 100	> 100
O=C1Cc2cccc(C(=O)N3CCOc4ccccc43)c2C(=O)N1 [Compound I-3, 8-(2,3-Dihydro-1,4-benzoxazine-4-carbonyl)-2,4-dihydroisoquinoline-1,3-dione]	30 to 100	> 100
Cc1ccccc1-c1ccc2c(c1)C(=O)NC(=O)C2 [Compound I-4, 7-(2-Methylphenyl)-2,4-dihydroisoquinoline-1,3-dione]	> 100	30 to 100
O=C1Cc2ccccc2C(=O)N1 [Compound I-5, 2,4-Dihydroisoquinoline-1,3-dione]	30 to 100	> 100
Cc1ncoc1-c1ccc2c(c1)C(=O)NC(=O)C2 [Compound I-6, 7-(4-Methyl-1,3-oxazol-5-yl)-2,4-dihydroisoquinoline-1,3-dione]	> 100	> 100
O=C1Cc2ccc(Br)cc2C(=O)N1 [Compound I-7, 7-Bromo-2,4-dihydroisoquinoline-1,3-dione]	> 100	30 to 100
O=C1Cc2cccc(Br)c2C(=O)N1 [Compound I-8, 8-Bromo-2,4-dihydroisoquinoline-1,3-dione]	> 100	10 to 30
Nc1ccc2c(c1)C(=O)NC(=O)C2 [Compound I-12]	10 to 30	< 10
Nc1ccccc1-c1ccc2c(c1)C(=O)NC(=O)C2 [Compound I-17, 7-(2-aminophenyl)-2,4-dihydroisoquinoline-1,3-dione]	30 to 100	> 100
COc1ccccc1-c1ccc2c(c1)C(=O)NC(=O)C2 [Compound I-18, 7-(2-Methoxyphenyl)-2,4-dihydroisoquinoline-1,3-dione]	30 to 100	> 100
O=C1Cc2ccc(O)cc2C(=O)N1 [Compound I-19, 7-hydroxy-2,4-dihydroisoquinoline-1,3-dione]	> 100	< 10
NC(=O)c1ccc2c(c1)C(=O)NC(=O)C2 [Compound I-20, 1,3-dioxo-2,4-dihydroisoquinoline-7-carboxamide]	> 100	30 to 100
CC(=O)Nc1ccc2c(c1)C(=O)NC(=O)C2 [Compound I-21]	10 to 30	30 to 100
Nc1cccc2c1C(=O)NC(=O)C2 [Compound I-22, 8-Amino-2,4-dihydroisoquinoline-1,3-dione]	10 to 30	> 100
O=C1Cc2cccc(O)c2C(=O)N1 [Compound I-23]	30 to 100	10 to 30
Cc1ccccc1-c1cccc2c1C(=O)NC(=O)C2 [Compound I-24]	10 to 30	–
Cc1ncoc1-c1cccc2c1C(=O)NC(=O)C2 [Compound I-25]	> 100	–
O=C1Cc2cccc(Oc3ccccc3)c2C(=O)N1 [Compound I-26, 8-phenoxy-2,4-dihydroisoquinoline-1,3-dione]	< 10	< 10
O=C1Cc2cccc(Nc3ccccc3)c2C(=O)N1 [Compound I-27, 8-(Phenylamino)-2,4-dihydroisoquinoline-1,3-dione]	30 to 100	30 to 100
O=C1NC(=O)c2c(Br)cccc21 [Compound I-29, 4-bromo-2H-isoindole-1,3-dione]	> 100	> 100
Cc1ccccc1-c1cccc2c1C(=O)NC2=O [Compound I-31, 4-(2-methylphenyl)-2H-isoindole-1,3-dione]	> 100	30 to 100
Cc1ncoc1-c1cccc2c1C(=O)NC2=O [Compound I-33, 4-(4-methyl-1,3-oxazol-5-yl)-2H-isoindole-1,3-dione]	> 100	> 100

Compound	IC50 (CRBN-DDB1) [µM]	IC50 [1] [µM]
CC(=O)Nc1cccc2c1C(=O)NC(=O)C2 [Compound I-42]	30 to 100	10 to 30
O=C1NC(=O)C(F)(F)c2cccc(Br)c21 [Compound I-49]	> 100	> 100
O=C1NC(=O)C(F)(F)c2cccc(C(=O)N3CCc4ccccc43)c21 [Compound I-50]	> 100	> 100
N#Cc1ccccc1-c1cccc2c1C(=O)NC(=O)C2 [Compound I-52, 2-(1,3-Dioxo-2,4-dihydroisoquinolin-8-yl)benzonitrile]	30 to 100	30 to 100
O=C1CC2(C(=O)N1)C(=O)Nc1ccccc12 (centres unmarked) [Compound I-176]	> 100	–
O=C1Cc2cccc(Oc3ccccc3Br)c2C(=O)N1 [Compound I-205]	< 10	–
O=C1Cc2cccc(Oc3ccc(Br)cc3)c2C(=O)N1 [Compound I-206, 8-(4-Bromophenoxy)-2,4-dihydroisoquinoline-1,3-dione]	< 10	–
O=C1Cc2cccc(Oc3cccc(Br)c3)c2C(=O)N1 [Compound I-207]	< 10	–
O=C1Cc2cccc(C(=O)N(Cc3ccccc3)Cc3ccccc3)c2C(=O)N1 [Compound I-208]	10 to 30	–
O=C1Cc2cccc(Oc3ccccc3[N+](=O)[O-])c2C(=O)N1 [Compound I-261]	10 to 30	–
O=C1Cc2cccc(Oc3ccccc3)c2CC(=O)N1 [Compound I-262]	> 100	–
Nc1ccccc1Oc1cccc2c1C(=O)NC(=O)C2 [Compound I-263]	30 to 100	–
O=C1Cc2cccc(Oc3cccnc3)c2C(=O)N1 [Compound I-271]	10 to 30	–
O=C1CC2(CCN(Cc3cccc(O)c3)CC2)CC(=O)N1 [Compound I-347]	–	> 100
O=C1CC2(CCN(C(=O)c3cccs3)CC2)CC(=O)N1 [Compound I-348]	–	> 100
Cc1cccc(CN2CCC3(CC2)CC(=O)NC(=O)C3)n1 [Compound I-349]	–	> 100
O=C1CC2(CCN(C(=O)c3cccnn3)CC2)CC(=O)N1 [Compound I-350]	–	> 100
O=C1CC2(CCN(C3CCCC3)CC2)CC(=O)N1 [Compound I-351]	–	> 100
O=C1CC2(CCN(C(=O)Cc3ccccn3)CC2)CC(=O)N1 [Compound I-352]	–	> 100
O=C1CC2(CCN(C(=O)c3cnco3)CC2)CC(=O)N1 [Compound I-353]	–	> 100
O=C1CC2(CCN(C(=O)c3c[nH]cn3)CC2)CC(=O)N1 [Compound I-354]	–	> 100
COc1ccc(C(=O)N2CCC3(CC2)CC(=O)NC(=O)C3)cn1 [Compound I-355]	–	> 100
Cc1ccc(CN2CCC3(CC2)CC(=O)NC(=O)C3)o1 [Compound I-356]	–	> 100

Compound	IC50 (CRBN-DDB1) [µM]	IC50 [1] [µM]
O=C1CC2(CCN(CCc3ccccc3)CC2)CC(=O)N1 [Compound I-357]	–	> 100
Cc1ncoc1C(=O)N1CCC2(CC1)CC(=O)NC(=O)C2 [Compound I-358]	–	> 100
O=C1CC2(CCN(C(=O)c3cnccn3)CC2)CC(=O)N1 [Compound I-359]	–	> 100
O=C1CC2(CCN(C(=O)c3ccco3)CC2)CC(=O)N1 [Compound I-360]	–	> 100
O=C1CC2(CCN(C(=O)c3ccc4ccoc4c3)CC2)CC(=O)N1 [Compound I-361]	–	> 100
O=C1CC2(CCN(C(=O)C3CC3)CC2)CC(=O)N1 [Compound I-362]	–	> 100
O=C1CC2(CCN(Cc3ccncc3)CC2)CC(=O)N1 [Compound I-363]	–	> 100
O=C1CC2(CCN(C(=O)c3cnon3)CC2)CC(=O)N1 [Compound I-364]	–	> 100
Cc1cccc(C(=O)N2CCC3(CC2)CC(=O)NC(=O)C3)c1 [Compound I-365]	–	> 100
O=C1CC2(CCN(C(=O)c3cncnc3)CC2)CC(=O)N1 [Compound I-366]	–	> 100
O=C1CC2(CCN(C(=O)c3cccc(C(F)(F)F)n3)CC2)CC(=O)N1 [Compound I-367]	–	> 100
O=C1CC2(CCN(C(=O)c3ccc4ccccc4c3)CC2)CC(=O)N1 [Compound I-368]	–	> 100
O=C1CC2(CCN(C(=O)c3ccc(O)cc3)CC2)CC(=O)N1 [Compound I-369]	–	> 100
O=C1CC2(CCN(C(=O)c3n[nH]c4ccccc34)CC2)CC(=O)N1 [Compound I-371]	–	> 100
O=C1CC2(CCNCC2)CC(=O)N1 [Compound I-372]	–	> 100
O=C1CC2(CCN(C(=O)c3ccnc(Cl)c3)CC2)CC(=O)N1 [Compound I-373]	–	> 100
O=C1CC2(CCN(Cc3ccccc3)CC2)CC(=O)N1 [Compound I-374]	–	> 100
O=C1NC(=O)[C@@H]2CN(C(=O)c3coc(COc4ccc5c(c4)OCO5)n3)C[C@H]12 [Compound I-375]	–	30 to 100
Cc1nn(C)c2nc(N3CCC4(CC3)CC(=O)NC(=O)C4)sc12 [Compound I-376]	–	30 to 100
O=C1CC2(CCc3cc(Br)ccc32)C(=O)N1 (centres unmarked) [Compound I-377]	–	30 to 100
O=C1NC(=O)c2cc(NC(=O)N3CC=C(c4ccc(O)cc4)CC3)ccc21 [Compound I-378]	–	30 to 100
